Measurements from ChEMBL document CHEMBL1909294, “Translating clinical findings into knowledge in drug safety evaluation--drug induced liver injury prediction system (DILIps)” (PLoS Comput Biol, 2011).
Where a name gives a salt, the structure may show the parent alone.

How the values were obtained:
Hepatotoxicity [1] = tested on: Hepatotoxicity;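 as to DILI positive/negative: binary label assigned from drug-induced liver injury observed in pharmaceutical company records, forming the validation set for the DILIps prediction system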;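 as to HepSE Combined Scores: combined hepatic side effect score as listed in the training data of the Drug Induced Liver Injury Prediction System (DILIps)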;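 as to HepSE bilirubinemia: bilirubinemia hepatic side effect score drawn from the DILIps training data, a prediction system for drug-induced liver injury; call rule not given here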;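 as to HepSE cholelithiasis: hepatic side effect score for cholelithiasis, drawn from the DILIps training data for predicting drug-induced liver injury; call rule not given here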;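 as to HepSE hepatomegaly: hepatic side effect score for hepatomegaly, taken from the training set of the DILIps drug-induced liver injury prediction system; call rule not given here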;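 as to HepSE jaundice: Jaundice-related hepatic side-effect score drawn from the training data of the DILIps (drug-induced liver injury prediction system); call rule not given here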
Hepatotoxicity [2] = tested on: Hepatotoxicity; remark: listed apart in the source;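 as to DILI positive/negative: binary label assigned from drug-induced liver injury observed in pharmaceutical company records, forming the validation set for the DILIps prediction system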;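 as to HepSE Combined Scores: combined hepatic side effect score as listed in the training data of the Drug Induced Liver Injury Prediction System (DILIps)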;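 as to HepSE bilirubinemia: bilirubinemia hepatic side effect score drawn from the DILIps training data, a prediction system for drug-induced liver injury; call rule not given here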;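 as to HepSE cholelithiasis: hepatic side effect score for cholelithiasis, drawn from the DILIps training data for predicting drug-induced liver injury; call rule not given here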;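 as to HepSE hepatomegaly: hepatic side effect score for hepatomegaly, taken from the training set of the DILIps drug-induced liver injury prediction system; call rule not given here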;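 as to HepSE jaundice: Jaundice-related hepatic side-effect score drawn from the training data of the DILIps (drug-induced liver injury prediction system); call rule not given here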
Hepatotoxicity [3] = tested on: Hepatotoxicity; remark: listed apart in the source;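 as to DILI positive/negative: binary label assigned from drug-induced liver injury observed in pharmaceutical company records, forming the validation set for the DILIps prediction system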;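 as to HepSE Combined Scores: combined hepatic side effect score as listed in the training data of the Drug Induced Liver Injury Prediction System (DILIps)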;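 as to HepSE bilirubinemia: bilirubinemia hepatic side effect score drawn from the DILIps training data, a prediction system for drug-induced liver injury; call rule not given here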;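 as to HepSE cholelithiasis: hepatic side effect score for cholelithiasis, drawn from the DILIps training data for predicting drug-induced liver injury; call rule not given here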;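 as to HepSE hepatomegaly: hepatic side effect score for hepatomegaly, taken from the training set of the DILIps drug-induced liver injury prediction system; call rule not given here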;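 as to HepSE jaundice: Jaundice-related hepatic side-effect score drawn from the training data of the DILIps (drug-induced liver injury prediction system); call rule not given here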
Hepatotoxicity [4] = tested on: Hepatotoxicity; remark: listed apart in the source;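 as to DILI positive/negative: binary label assigned from drug-induced liver injury observed in pharmaceutical company records, forming the validation set for the DILIps prediction system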;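 as to HepSE bilirubinemia: bilirubinemia hepatic side effect score drawn from the DILIps training data, a prediction system for drug-induced liver injury; call rule not given here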;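 as to HepSE cholelithiasis: hepatic side effect score for cholelithiasis, drawn from the DILIps training data for predicting drug-induced liver injury; call rule not given here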;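 as to HepSE hepatomegaly: hepatic side effect score for hepatomegaly, taken from the training set of the DILIps drug-induced liver injury prediction system; call rule not given here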;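 as to HepSE jaundice: Jaundice-related hepatic side-effect score drawn from the training data of the DILIps (drug-induced liver injury prediction system); call rule not given here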
Hepatotoxicity [5] = tested on: Hepatotoxicity; remark: listed apart in the source
Hepatotoxicity [6] = tested on: Hepatotoxicity; remark: listed apart in the source
Hepatotoxicity [7] = tested on: Hepatotoxicity; remark: listed apart in the source
Hepatotoxicity [8] = tested on: Hepatotoxicity; remark: listed apart in the source
Hepatotoxicity [9] = tested on: Hepatotoxicity; remark: listed apart in the source
Hepatotoxicity [10] = tested on: Hepatotoxicity; remark: listed apart in the source
Hepatotoxicity [11] = tested on: Hepatotoxicity; remark: listed apart in the source
Hepatotoxicity [12] = tested on: Hepatotoxicity; remark: listed apart in the source
Hepatotoxicity [13] = tested on: Hepatotoxicity; remark: listed apart in the source
Hepatotoxicity [14] = tested on: Hepatotoxicity; remark: listed apart in the source
Hepatotoxicity [15] = tested on: Hepatotoxicity; remark: listed apart in the source

Molecule	DILI positive/negative (Hepatotoxicity [1])	further results
COc1cccc(OC)c1C(=O)N[C@@H]1C(=O)N2[C@@H]1SC(C)(C)[C@@H]2C(=O)[O-].[Na+]	1	–
Cl.NCCNCCNCCN	–	DILI positive/negative (Hepatotoxicity [1]; Liver): 1
Cl.Cl.OCCN1CCN(CC/C=C2/c3ccccc3Sc3ccc(C(F)(F)F)cc32)CC1	–	DILI positive/negative (Hepatotoxicity [1]; Liver): 0
Cl.Nc1cc(Cl)cc(Cl)c1	0	–
C=CC(O)CC#N (centres undefined)	0	–
O=C1NC(=O)C(O)(O)C(=O)N1	0	–
CCN(CC)Cc1cc(Nc2ccnc3cc(Cl)ccc23)ccc1O.Cl.Cl.Cl	–	DILI positive/negative (Hepatotoxicity [1]; Liver): 1
O=C1NCN(c2ccccc2)C12CCN(CCCC(c1ccc(F)cc1)c1ccc(F)cc1)CC2	1	–
C=C1CC[C@@]2(O)[C@H]3Cc4ccc(O)c5c4[C@@]2(CCN3CC2CC2)[C@H]1O5	0	–
S=C=Nc1cccc2ccccc12 [1-NAPHTHYLISOTHIOCYANATE]	1	–
CC(=O)Nc1ccc2c(c1)Cc1ccccc1-2 [2-ACETYLAMINOFLUORENE]	1	–
Cc1ccc2cc3c(ccc4ccccc43)c3c2c1CC3 [3-METHYLCHOLANTHRENE]	1	–
CC(=O)CC(c1ccc([N+](=O)[O-])cc1)c1c(O)c2ccccc2oc1=O (centres undefined) [ACENOCOUMAROL]	1	–
CC(=O)c1ccc(S(=O)(=O)NC(=O)NC2CCCCC2)cc1 [ACETOHEXAMIDE]	1	–
N[C@H](C(=O)O)[C@@H]1CC(Cl)=NO1 [ACIVICIN]	0	–
COc1cc2c(c3oc(=O)c4c(c13)CCC4=O)[C@@H]1C=CO[C@@H]1O2 [AFLATOXIN]	1	–
C=CCO [ALLYL ALCOHOL]	1	–
C=CCOC=O [ALLYL FORMATE]	1	–
Cl.O=C(O)CCCCCCNC1c2ccccc2CCc2ccccc21 [AMINEPTINE HYDROCHLORIDE]	1	–
Nc1ccc(C(=O)[O-])cc1.[K+] [AMINOBENZOATE POTASSIUM]	0	–
CCOC(=O)C1(c2ccccc2)CCN(CCc2ccc(N)cc2)CC1.Cl [ANILERIDINE HYDROCHLORIDE]	0	–
O=C1O[C@H]([C@@H](O)CO)C(O)=C1O [ASCORBIC ACID]	0	–
COc1ccc(CCN2CCC(Nc3nc4ccccc4n3Cc3ccc(F)cc3)CC2)cc1 [ASTEMIZOLE]	0	–

Molecule	DILI positive/negative (Hepatotoxicity [1])	further results
C=C1[C@@H]2CCC3[C@@](CC[C@@H]4[C@H](C(=O)O)C[C@@H](O[C@@H]5O[C@H](CO)[C@@H](OS(=O)(=O)[O-])[C@H](OS(=O)(=O)[O-])[C@H]5OC(=O)CC(C)C)C[C@@]34C)(C2)[C@@H]1O.[K+].[K+] (some centres undefined) [ATRACTYLOSIDE]	1	–
Nc1ncn([C@@H]2O[C@H](CO)[C@@H](O)[C@H]2O)c(=O)n1 [AZACITIDINE]	–	DILI positive/negative (Hepatotoxicity [1]; Liver): 1
Cl.Cl.O=C(CCN1CCN2CCCC2C1)N1c2ccccc2Sc2ccc(Cl)cc21 (centres undefined) [AZACLORZINE HYDROCHLORIDE]	1	–
CN1CCC(=C2c3ccccc3CCc3cccnc32)CC1.O=C(O)/C=C\C(=O)O.O=C(O)/C=C\C(=O)O [AZATADINE MALEATE]	1	–
CC1(C)S[C@@H]2[C@H](NC(=O)[C@H](NC(=O)N3CCNC3=O)c3ccccc3)C(=O)N2[C@H]1C(=O)[O-].[Na+] [AZLOCILLIN SODIUM]	0	–
CC(C)COCC(CN(Cc1ccccc1)c1ccccc1)N1CCCC1.Cl.O (centres undefined) [BEPRIDIL HYDROCHLORIDE]	1	–
Oc1c(Cl)cc(Cl)cc1Sc1cc(Cl)cc(Cl)c1O [BITHIONOL]	1	–
Brc1ccccc1 [BROMOBENZENE]	1	–
CN(C)CCC(c1ccc(Br)cc1)c1ccccn1.O=C(O)/C=C\C(=O)O (centres undefined) [BROMPHENIRAMINE MALEATE]	0	–
C=C1CC[C@H](O)C/C1=C/C=C1\CCC[C@]2(C)[C@@H]([C@H](C)CCCC(C)(C)O)CC[C@@H]12.O [CALCIFEDIOL]	1	–
COc1cc(CNC(=O)CCCC/C=C/C(C)C)ccc1O [CAPSAICIN]	0	–
CC1(C)[C@@H](OC(=O)CCC(=O)[O-])CC[C@]2(C)[C@H]3C(=O)C=C4[C@@H]5C[C@@](C)(C(=O)[O-])CC[C@]5(C)CC[C@@]4(C)[C@]3(C)CC[C@@H]12.[Na+].[Na+] [CARBENOXOLONE SODIUM]	0	–
Cn1nnnc1SCC1=C(C(=O)[O-])N2C(=O)[C@@H](NC(=O)[C@H](O)c3ccccc3)[C@H]2SC1.[Na+] [CEFAMANDOLE SODIUM]	1	–
CCN1CCN(C(=O)N[C@@H](C(=O)N[C@@H]2C(=O)N3C(C(=O)O)=C(CSc4nnnn4C)CS[C@H]23)c2ccc(O)cc2)C(=O)C1=O.O.O [CEFOPERAZONE DIHYDRATE]	0	–
CN(C)CCn1nnnc1SCC1=C(C(=O)O)N2C(=O)[C@@H](NC(=O)Cc3csc(N)n3)[C@H]2SC1.Cl.Cl [CEFOTIAM HYDROCHLORIDE]	1	–
CC(=O)OCC1=C(C(=O)[O-])N2C(=O)[C@@H](NC(=O)Cc3cccs3)[C@H]2SC1.[Na+] [CEPHALOTHIN SODIUM]	1	–
CC(=O)OCC1=C(C(=O)[O-])N2C(=O)[C@@H](NC(=O)CSc3ccncc3)[C@H]2SC1.[Na+] [CEPHAPIRIN SODIUM]	0	–
C[C@H](CCC(=O)O)[C@H]1CC[C@H]2[C@@H]3[C@H](O)C[C@@H]4C[C@H](O)CC[C@]4(C)[C@H]3CC[C@]12C [CHENODIOL]	1	–
CN(C)[C@@H]1C(O)=C(C(N)=O)C(=O)[C@@]2(O)C(O)=C3C(=O)c4c(O)ccc(Cl)c4[C@@](C)(O)[C@H]3C[C@@H]12.Cl [CHLORTETRACYCLINE HYDROCHLORIDE]	1	–
CC1(COc2ccc(CC3SC(=O)NC3=O)cc2)CCCCC1 (centres undefined) [CIGLITAZONE]	1	–
Cc1onc(-c2ccccc2Cl)c1C(=O)N[C@@H]1C(=O)N2[C@@H]1SC(C)(C)[C@@H]2C(=O)[O-].O.[Na+] [CLOXACILLIN SODIUM]	1	–
CN1CCN(C(c2ccccc2)c2ccccc2)CC1 [CYCLIZINE]	1	–
CN(CCCCCCCCCCN(C)C(=O)Oc1cccc([N+](C)(C)C)c1)C(=O)Oc1cccc([N+](C)(C)C)c1.[Br-].[Br-] [DEMECARIUM BROMIDE]	1	–

Molecule	DILI positive/negative (Hepatotoxicity [1])	further results
Br.COc1ccc2c(c1)[C@]13CCCC[C@@H]1[C@H](C2)N(C)CC3.O [DEXTROMETHORPHAN HYDROBROMIDE]	0	–
C[C@H](CCc1ccccc1)NC[C@H](O)c1ccc(O)c(C(N)=O)c1 [DILEVALOL]	1	–
CCOC(=O)C1(c2ccccc2)CCN(CCC(C#N)(c2ccccc2)c2ccccc2)CC1.Cl [DIPHENOXYLATE HYDROCHLORIDE]	0	–
CC[N+](C)(C)c1cccc(O)c1.[Cl-] [EDROPHONIUM CHLORIDE]	0	–
C[C@@H](CO)NC(=O)[C@@H]1C=C2c3cccc4[nH]cc(c34)C[C@H]2N(C)C1.O=C(O)/C=C\C(=O)O [ERGONOVINE MALEATE]	0	–
C[C@]12CC[C@@H]3c4ccc(O)cc4CC[C@H]3[C@@H]1CCC2=O [ESTRONE]	1	–
C#C[C@]1(O)CC[C@H]2[C@@H]3CCc4cc(O)ccc4[C@H]3CC[C@@]21C [ETHINYL ESTRADIOL]	1	–
CCSCC[C@H](N)C(=O)O [ETHIONINE]	1	–
C#C[C@]1(OC(C)=O)CC[C@H]2[C@@H]3CCC4=C[C@@H](OC(C)=O)CC[C@@H]4[C@H]3CC[C@@]21C [ETHYNODIOL DIACETATE]	1	–
O=c1[nH]c(=O)n([C@H]2C[C@H](O)[C@@H](CO)O2)cc1F [FLOXURIDINE]	1	–
CC[N+](CC)(CC)CCOc1cccc(OCC[N+](CC)(CC)CC)c1OCC[N+](CC)(CC)CC.[I-].[I-].[I-] [GALLAMINE TRIETHIODIDE]	0	–
CCC1(c2ccccc2)CCC(=O)NC1=O (centres undefined) [GLUTETHIMIDE]	1	–
Cc1c(F)c(N2CCNC(C)C2)cc2c1c(=O)c(C(=O)O)cn2C1CC1 (centres undefined) [GREPAFLOXACIN]	–	DILI positive/negative (Hepatotoxicity [1]; Liver): 1
CCN(CC)CCNc1ccc(CO)c2sc3ccccc3c(=O)c12 [HYCANTHONE]	1	–
CC1(c2ccccc2)Cc2cc(OCC(=O)O)c(Cl)c(Cl)c2C1=O (centres undefined) [INDACRINONE]	1	–
O=C(O)c1ccncc1 [ISONICOTINIC ACID]	0	–
Cc1cc(NC(=O)C2=C(O)c3ccccc3S(=O)(=O)N2C)no1 [ISOXICAM]	0	–
N[C@@H](Cc1ccc(O)c(O)c1)C(=O)O [LEVODOPA]	0	–
COc1ccc2[nH]cc(CCNC(C)=O)c2c1 [MELATONIN]	0	–
CCC1(c2ccccc2)C(=O)NC(=O)N(C)C1=O (centres undefined) [MEPHOBARBITAL]	1	–
VERTEPORFIN	–	HepSE_jaundice (Hepatotoxicity [2]): 0; HepSE_cholelithiasis (Hepatotoxicity [3]): 0; HepSE_hepatomegaly (Hepatotoxicity [4]): 0; HepSE_bilirubinemia (Hepatotoxicity [5]): 0; HepSE_Combined Scores (Hepatotoxicity [6]): 1; HepSE_liver fatty (Hepatotoxicity [7]): 0; HepSE_cirrhosis (Hepatotoxicity [8]): 0; HepSE_liver function tests abnormal (Hepatotoxicity [9]): 0; HepSE_hepatitis (Hepatotoxicity [10]): 0; HepSE_hepatic failure (Hepatotoxicity [11]): 0; HepSE_liver disease (Hepatotoxicity [12]): 0; HepSE_cholecystitis (Hepatotoxicity [13]): 0; HepSE_elevated liver function tests (Hepatotoxicity [14]): 1; HepSE_hepatic necrosis (Hepatotoxicity [15]): 0
VITAMIN B12	–	HepSE_jaundice (Hepatotoxicity [2]): 0; HepSE_cholelithiasis (Hepatotoxicity [3]): 0; HepSE_hepatomegaly (Hepatotoxicity [4]): 0; HepSE_bilirubinemia (Hepatotoxicity [5]): 0; HepSE_Combined Scores (Hepatotoxicity [6]): 0; HepSE_liver fatty (Hepatotoxicity [7]): 0; HepSE_cirrhosis (Hepatotoxicity [8]): 0; HepSE_liver function tests abnormal (Hepatotoxicity [9]): 0; HepSE_hepatitis (Hepatotoxicity [10]): 0; HepSE_hepatic failure (Hepatotoxicity [11]): 0; HepSE_liver disease (Hepatotoxicity [12]): 0; HepSE_cholecystitis (Hepatotoxicity [13]): 0; HepSE_elevated liver function tests (Hepatotoxicity [14]): 0; HepSE_hepatic necrosis (Hepatotoxicity [15]): 0
